# According to patent publication US10988477B2 (Merck Patent GmbH, priority 2018, dated 2021):
# Molecular target: GCN2 kinase (Homo sapiens, UniProt Q9P2K8)
# Assay: GCN2 enzyme inhibition assay (Transcreener ADP2 fluorescence polarization)
# Type: biochemical
# Conditions: Enzyme activity for compounds of Formula IV; Ki(app), 280 μM ATP, 25° C.
# Procedure, shortened: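 Human GCN2 (4 nM) preincubated 10 min with compound (0–8 μM) and 200 μM (RS)7 peptide in Tris-HCl pH 7.5, NaCl, MgCl2, DTT. Reaction started with 280 μM ATP, run 1 h at 25 °C. ADP detected by Transcreener fluorescence polarization. IC50 and Ki(app) fitted by tight-binding algorithm.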
# GCN2 kinase, sequence (Q9P2K8 whole entry): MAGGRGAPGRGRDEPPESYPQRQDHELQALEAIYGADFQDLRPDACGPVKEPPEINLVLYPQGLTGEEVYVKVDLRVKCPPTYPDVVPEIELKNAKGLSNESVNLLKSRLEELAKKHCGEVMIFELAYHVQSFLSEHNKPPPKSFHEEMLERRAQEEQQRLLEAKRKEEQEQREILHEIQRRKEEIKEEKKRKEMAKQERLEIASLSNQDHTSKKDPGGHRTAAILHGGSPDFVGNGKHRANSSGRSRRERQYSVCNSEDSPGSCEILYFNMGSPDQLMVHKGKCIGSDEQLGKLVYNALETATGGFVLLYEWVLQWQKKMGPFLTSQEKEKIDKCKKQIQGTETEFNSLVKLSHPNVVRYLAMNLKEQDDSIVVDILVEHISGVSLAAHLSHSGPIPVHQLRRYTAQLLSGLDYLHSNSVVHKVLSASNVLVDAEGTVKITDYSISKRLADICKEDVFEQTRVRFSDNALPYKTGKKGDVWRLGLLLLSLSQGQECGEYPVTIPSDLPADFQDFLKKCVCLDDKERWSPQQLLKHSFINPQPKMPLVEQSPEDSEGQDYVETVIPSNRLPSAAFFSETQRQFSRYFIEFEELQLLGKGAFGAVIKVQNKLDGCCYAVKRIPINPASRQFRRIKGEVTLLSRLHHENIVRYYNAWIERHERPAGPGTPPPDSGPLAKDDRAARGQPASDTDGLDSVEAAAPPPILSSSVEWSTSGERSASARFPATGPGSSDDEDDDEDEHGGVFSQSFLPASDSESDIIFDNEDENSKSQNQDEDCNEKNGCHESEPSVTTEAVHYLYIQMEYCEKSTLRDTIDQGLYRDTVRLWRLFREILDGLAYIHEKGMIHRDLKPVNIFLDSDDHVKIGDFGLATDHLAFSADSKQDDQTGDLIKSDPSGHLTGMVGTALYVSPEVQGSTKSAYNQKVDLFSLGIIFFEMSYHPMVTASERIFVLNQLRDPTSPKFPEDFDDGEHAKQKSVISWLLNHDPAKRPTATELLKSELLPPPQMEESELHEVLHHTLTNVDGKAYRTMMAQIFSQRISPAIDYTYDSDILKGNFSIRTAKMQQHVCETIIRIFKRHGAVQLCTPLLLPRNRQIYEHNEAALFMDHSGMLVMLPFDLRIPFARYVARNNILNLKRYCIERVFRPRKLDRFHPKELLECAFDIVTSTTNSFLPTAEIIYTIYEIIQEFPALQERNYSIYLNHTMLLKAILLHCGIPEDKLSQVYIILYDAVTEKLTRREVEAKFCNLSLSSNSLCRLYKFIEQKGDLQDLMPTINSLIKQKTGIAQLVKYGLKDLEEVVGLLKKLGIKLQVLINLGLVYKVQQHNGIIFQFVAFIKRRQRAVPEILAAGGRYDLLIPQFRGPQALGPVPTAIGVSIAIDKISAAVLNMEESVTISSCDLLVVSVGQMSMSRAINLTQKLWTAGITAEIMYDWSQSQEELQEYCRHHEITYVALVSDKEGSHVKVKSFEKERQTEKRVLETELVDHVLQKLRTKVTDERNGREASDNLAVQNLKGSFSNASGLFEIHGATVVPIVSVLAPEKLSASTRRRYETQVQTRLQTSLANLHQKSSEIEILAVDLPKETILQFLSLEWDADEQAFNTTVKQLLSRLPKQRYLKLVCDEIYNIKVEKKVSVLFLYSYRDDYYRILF
row,Structure (SMILES),Ki
1,"N#CC1CN(c2ccnc(-c3cnc4cnc(C(N)=O)cn34)n2)CCC1=O (stereo not drawn) [IV-253, 3-(4-(3-Cyano-4-oxopiperidin-1-yl)pyrimidin-2-yl)imidazo[1,2-a]pyrazine-6-carboxamide]",10 to 100 nM
2,"CC(C)(C)C1OCN2CCN(c3ccnc(-c4cnc5cnc(C(F)(F)F)cn45)n3)CC12 (stereo not drawn) [IV-506, 1-(tert-Butyl)-7-(2-(6-(trifluoromethyl)imidazo[1,2-a]pyrazin-3-yl)pyrimidin-4-yl)hexahydro-3H-oxazolo[3,4-a]pyrazine]",100 to 1000 nM
3,"CC1CC(c2cn[nH]c2)C(C)N(c2ccnc(-c3cnc4cnc(C(F)(F)F)cn34)n2)C1 (single isomer, unassigned) [IV-310]",10 to 100 nM
4,"CC1CN(c2nc(-c3cnc4cnc(C(F)(F)F)cn34)ncc2F)C(C)C(c2cn[nH]c2)N1 (single isomer, unassigned) [IV-324, 3-(4-(2,5-Dimethyl-3-(1H-pyrazol-4-yl)piperazin-1-yl)-5-fluoropyrimidin-2-yl)-6-(trifluoromethyl)imidazo[1,2-a]pyrazine]",10 to 100 nM
5,"Cn1cc(C(F)(F)F)nc1C1CCCN(c2ccnc(-c3cnc4cnc(C(F)(F)F)cn34)n2)C1 (stereo not drawn) [IV-654, 3-(4-(3-(1-Methyl-4-(trifluoromethyl)-1H-imidazol-2-yl)piperidin-1-yl)pyrimidin-2-yl)-6-(trifluoromethyl)imidazo[1,2-a]pyrazine]",100 to 1000 nM
6,"CC1CN(c2ccnc(-c3cnc4cnc(C(F)(F)F)cn34)n2)CC(c2cn[nH]c2C(F)(F)F)N1 (single isomer, unassigned) [IV-475, 3-(4-(3-Methyl-5-(5-(trifluoromethyl)-1H-pyrazol-4-yl)piperazin-1-yl)pyrimidin-2-yl)-6-(trifluoromethyl)imidazo[1,2-a]pyrazine]",10 to 100 nM
7,"CCN1CCN(c2ccnc(-c3cnc4cnc(Br)cn34)n2)[C@@H](C)[C@H]1c1cn[nH]c1 (relative stereo) [IV-390, Cis-6-Bromo-3-(4-(4-ethyl-2-methyl-3-(1H-pyrazol-4-yl)piperazin-1-yl)pyrimidin-2-yl)imidazo[1,2-a]pyrazine]",< 10 nM
8,"CC1CCN(c2ccnc(-c3cnc4cnc(C(F)(F)F)cn34)n2)CC1n1ccnc1 (stereo not drawn) [IV-319, 3-(4-(3-(1H-Imidazol-1-yl)-4-methylpiperidin-1-yl)pyrimidin-2-yl)-6-(trifluoromethyl)imidazo[1,2-a]pyrazine]",100 to 1000 nM
9,NCCC1CN(c2ccnc(-c3cnc4cnc(C(F)(F)F)cn34)n2)CCO1 (stereo not drawn) [IV-486],100 to 1000 nM
10,"CC1CN(c2ccnc(-c3cnc4cnc(C(F)(F)F)cn34)n2)C(C)C(c2c[nH]c(C(F)(F)F)n2)N1 (stereo not drawn) [IV-666, 3-(4-(2,5-Dimethyl-3-(2-(trifluoromethyl)-1H-imidazol-4-yl)piperazin-1-yl)pyrimidin-2-yl)-6-(trifluoromethyl)imidazo[1,2-a]pyrazine]",10 to 100 nM
11,"FC(F)(F)c1cn2c(-c3nccc(N4CCCC5(COC5)C4)n3)cnc2cn1 [IV-523, 6-(2-(6-(Trifluoromethyl)imidazo[1,2-a]pyrazin-3-yl)pyrimidin-4-yl)-2-oxa-6-azaspiro[3.5]nonane]",100 to 1000 nM
12,"NC(=O)c1cn2c(-c3cccc(N4CCCC(CO)C4)n3)cnc2cn1 (stereo not drawn) [IV-220, 3-(6-(3-(Hydroxymethyl)piperidin-1-yl)pyridin-2-yl)imidazo[1,2-a]pyrazine-6-carboxamide]",10 to 100 nM
13,Cc1csc2c1CN(c1ccnc(-c3cnc4cnc(C(F)(F)F)cn34)n1)CC2 [IV-714],100 to 1000 nM
14,"CC1CCCN(c2cccc(-c3cnc4cnc(C(N)=O)cn34)n2)C1 (stereo not drawn) [IV-205, 3-(6-(3-Methylpiperidin-1-yl)pyridin-2-yl)imidazo[1,2-a]pyrazine-6-carboxamide]",10 to 100 nM
15,"O=C(NCCO)C1CCCN(c2ccnc(-c3cnc4cnc(C(F)(F)F)cn34)n2)C1 (stereo not drawn) [IV-479, N-(2-Hydroxyethyl)-1-(2-(6-(trifluoromethyl)imidazo[1,2-a]pyrazin-3-yl)pyrimidin-4-yl)piperidine-3-carboxamide]",100 to 1000 nM
16,"CNC(=O)C1CCN(c2ccnc(-c3cnc4cnc(C(F)(F)F)cn34)n2)C1 (stereo not drawn) [IV-625, N-Methyl-1-(2-(6-(trifluoromethyl)imidazo[1,2-a]pyrazin-3-yl)pyrimidin-4-yl)pyrrolidine-3-carboxamide]",100 to 1000 nM
17,"FC(F)(F)c1cn2c(-c3nccc(N4CCC(n5ccnc5)C4)n3)cnc2cn1 (stereo not drawn) [IV-564, 3-(4-(3-(1H-Imidazol-1-yl)pyrrolidin-1-yl)pyrimidin-2-yl)-6-(trifluoromethyl)imidazo[1,2-a]pyrazine]",100 to 1000 nM
18,"NC(=O)c1cn2c(-c3nccc(N4CCN5C(=O)CCCC5C4)n3)cnc2cn1 (single isomer, unassigned) [IV-273, 3-(4-(6-Oxooctahydro-2H-pyrido[1,2-a]pyrazin-2-yl)pyrimidin-2-yl)imidazo[1,2-a]pyrazine-6-carboxamide]",100 to 1000 nM
19,"FC(F)(F)c1cn2c(-c3nccc(N4CCNC(c5cn[nH]c5)C4)n3)cnc2cn1 (single isomer, unassigned) [IV-232, 3-(4-(3-(1H-Pyrazol-4-yl)piperazin-1-yl)pyrimidin-2-yl)-6-(trifluoromethyl)imidazo[1,2-a]pyrazine]",10 to 100 nM
20,"FC(F)(F)c1cn2c(-c3nccc(N4CCCC(c5c[nH]cn5)C4)n3)cnc2cn1 (stereo not drawn) [IV-325, 3-(4-(3-(1H-Imidazol-4-yl)piperidin-1-yl)pyrimidin-2-yl)-6-(trifluoromethyl)imidazo[1,2-a]pyrazine]",10 to 100 nM

# Same assay, conditions: compounds of Formula II; 280 μM ATP, 4 nM GCN2 kinase
Structure (SMILES),Ki,IC50
"CS(=O)(=O)NCC1CN(c2cc(-c3cnc4ccc(C(F)F)nn34)ncn2)C[C@@H]2CCCN12 (stereo partly drawn) [II-560, N-(((8aS)-2-(6-(6-(Difluoromethyl)imidazo[1,2-b]pyridazin-3-yl)pyrimidin-4-yl)octahydropyrrolo[1,2-a]pyrazin-4-yl)methyl)methanesulfonamide]",< 10 nM,
"Cc1nn(C)cc1C1CN(c2cc(-c3cnc4ccc(C(F)(F)F)nn34)ncn2)C[C@@H](C)O1 (stereo in doubt) [II-761, (2S,6R)-2-(1,3-dimethyl-1H-pyrazol-4-yl)-6-methyl-4-(6-(6-(trifluoromethyl)imidazo[1,2-b]pyridazin-3-yl)pyrimidin-4-yl)morpholine]",,> 1000 nM
"CC1C(NS(C)(=O)=O)CCCN1c1cc(-c2cnc3ccc(C(F)F)nn23)ncn1 (stereo not drawn) [II-600, N-(1-(6-(6-(Difluoromethyl)imidazo[1,2-b]pyridazin-3-yl)pyrimidin-4-yl)-2-methylpiperidin-3-yl)methanesulfonamide]",> 1000 nM,
"CC1C(CNS(C)(=O)=O)C(C)(O)C(C)CN1c1cc(-c2cnc3ccc(C(F)F)nn23)ncn1 (stereo not drawn) [II-617, N-((1-(6-(6-(Difluoromethyl)imidazo[1,2-b]pyridazin-3-yl)pyrimidin-4-yl)-4-hydroxy-2,4,5-trimethylpiperidin-3-yl)methyl)methanesulfonamide]",10 to 1000 nM,
"CC1CC(N=S(C)(C)=O)CN(c2cc(-c3cnc4ccc(C(F)F)nn34)c(F)cn2)C1 (single isomer, unassigned) [II-722, ((1-(4-(6-(Difluoromethyl)imidazo[1,2-b]pyridazin-3-yl)-5-fluoropyridin-2-yl)-5-methylpiperidin-3-yl)imino)dimethyl-λ^6-sulfanone]",10 to 1000 nM,
FC(F)c1ccc2ncc(-c3ccnc(N4CCCC(c5c[nH]cn5)C4)c3)n2n1 (stereo not drawn) [II-749],10 to 1000 nM,
"CC(=O)N1CCN(c2cc(-c3cnc4ccc(C(=O)O)nn34)ccn2)CC1 [II-734, 3-(2-(4-acetylpiperazin-1-yl)pyridin-4-yl)imidazo[1,2-b]pyridazine-6-carboxylic acid]",> 1000 nM,
